Source: US10538520B2, “Benzamide and nicotinamide compounds and methods of using same” (OncoTartis Inc., priority 2013, dated 2020)

What was measured:
MV4-11 cells = experiment: Subcutaneous MV4-11 xenograft model of AML in SCID mice, tumor growth; type: in vivo; settings: for maximum suppression of tumor growth (STG %): 6 days per week; for effect on tumor growth: SCID mice inoculated SC with MV4-11 cells (FIGS. 1 and 2)
Method: FIG. 1. Example of growth of tumors in MV4-11 xenograft model of AML in SCID mice treated with vehicle control and TT-03197 at 10 mg/kg and 40 mg/kg administered intraperitoneally. Mice were treated 6 days per week as indicated on the figure. Results are Mean±SE (n=14-16).
FIG. 2. Example of growth of tumors in MV4-11 xenograft model of AML in SCID mice treated with vehicle control and TT-03203 at 10 mg/kg and 25 mg/kg administered orally. Mice were treated 6 days per weeks as indicated on the figure. Results are Mean±SE (n=17-20)
Efficacy of compounds was tested in two types of xenograft models of leukemia: subcutaneous (SC) (development of tumors after SC inoculation of cells) and systemic and disseminated (development of tumors on different organs after intravenous inoculation of cells). MV4-11 cells (ATCC CRL-9591) of acute myelomonocytic leukemia (AML) were used.
The maximum suppression of tumor growth (calculated using formula: STG %=(volume control-volume treated)/volume control*100) was 28% for mice treated with 10 mg/kg of TT-03197 and 55% for mice treated with 40 mg/kg of […] (FIG. 1). For TT-03203 the maximum STG was 27% for mice treated PO with 10 mg/kg of TT-03203 and 46% for mice treated with 25 mg/kg of TT-03203 (FIG. 2).

MV4-11 = experiment: Cytotoxicity towards MV4-11 cell line; type: cell-based; settings: Homo sapiens
Method: (§1) In various embodiments, the compounds of the disclosure are those in which show IC50 values in cytotoxicity experiments towards cells lines MV4-11 and U937 of >20 μM, 10-20 μM, 5-10 μM, 1-5 μM, or <1 μM.
(§2) The IC50 is divided into 5 categories: A<1 μM, B 1-5 μM, C 5-10 μM, D 10-20 μM, and E>20 μM.

U-937 = experiment: Cytotoxicity towards U-937 cell line; type: cell-based; settings: Homo sapiens
Method: as §1, §2

| SMILES | IC50 (MV4-11) | IC50 (U-937) | further results |
| --- | --- | --- | --- |
| O=C(NCCCc1cn[nH]c1)c1ccc(-n2cccn2)c(C#Cc2ccc(F)cc2)c1 [TT-03197] | < 1000 nM | < 1000 nM | maximum suppression of tumor growth (STG %) (MV4-11 cells; 10 mg/kg, intraperitoneally, SC MV4-11 xenograft (FIG. 1)): 28%; effect on tumor growth (MV4-11 cells): dose-dependent reduction of tumor growth |
| O=C(NCCCc1cn[nH]c1)c1ccc(-n2cccn2)c(C#Cc2ccc(Cl)cc2)c1 [TT-03203] | < 1000 nM | < 1000 nM | maximum suppression of tumor growth (STG %) (MV4-11 cells; 10 mg/kg PO, SC MV4-11 xenograft (FIG. 2)): 27%; maximum suppression of tumor growth (STG %) (MV4-11 cells; 25 mg/kg PO, SC MV4-11 xenograft (FIG. 2)): 46%; maximum suppression of tumor growth (STG %) (MV4-11 cells; 40 mg/kg, intraperitoneally, SC MV4-11 xenograft (FIG. 1)): 55%; effect on tumor growth (MV4-11 cells): dose-dependent reduction of tumor growth |
| CC(C)(C)OC(=O)NCc1ccc(C#Cc2cc(C(=O)NCCCc3cn[nH]c3)ccc2-n2cccn2)cc1 [TT-03364] | 1000 to 5000 nM | 1000 to 5000 nM |  |
| O=C(NCCCc1cn[nH]c1)c1ccc(-n2cccn2)c(C#Cc2ccc(F)cn2)c1 [TT-03569] | < 1000 nM | < 1000 nM |  |
| O=C(NCCCn1ccnc1)c1ccc(-n2cccn2)c(CCc2ccccc2)c1 [TT-03574] | 5000 to 10000 nM | 5000 to 10000 nM |  |
| O=C(NCCCc1cn[nH]c1)c1ccc(-c2ccncc2)c(C#Cc2ccc(F)cc2)c1 [TT-03582] | < 1000 nM | < 1000 nM |  |
| Cn1cc(-c2ccc(C(=O)NCCCc3cn[nH]c3)cc2C#Cc2ccc(F)cc2)cn1 [TT-03585] | < 1000 nM | < 1000 nM |  |
| O=C(NCCCc1cn[nH]c1)c1ccc(N2CCC(O)CC2)c(C#Cc2ccc(F)cc2)c1 [TT-03587] | < 1000 nM | < 1000 nM |  |
| O=C(NCCCc1cn[nH]c1)c1ccc(N2CCCCC2)c(C#Cc2ccc(F)cc2)c1 [TT-03588] | < 1000 nM | < 1000 nM |  |
| O=C(NCCCc1cn[nH]c1)c1ccc(N2CCCCCC2)c(C#Cc2ccc(F)cc2)c1 [TT-03589] | < 1000 nM | < 1000 nM |  |
| O=C(NCCCc1cn[nH]c1)c1ccc(N2CCC3(CCCCC3)C2)c(C#Cc2ccc(F)cc2)c1 [TT-03590] | < 1000 nM | < 1000 nM |  |
| O=C(NCCCc1cn[nH]c1)c1ccc(N2CCC(C(F)(F)F)CC2)c(C#Cc2ccc(F)cc2)c1 [TT-03591] | < 1000 nM | < 1000 nM |  |
| O=C(NCCCc1cn[nH]c1)c1ccc(N2CCCCC2CCO)c(C#Cc2ccc(F)cc2)c1 (stereo not shown) [TT-03592] | < 1000 nM | < 1000 nM |  |
| CN(C)CC1(O)CCN(c2ccc(C(=O)NCCCc3cn[nH]c3)cc2C#Cc2ccc(F)cc2)C1 (stereo not shown) [TT-03594] | < 1000 nM | < 1000 nM |  |
| O=C(NCCCc1cn[nH]c1)c1ccc(N2CCCC(CO)C2)c(C#Cc2ccc(F)cc2)c1 (stereo not shown) [TT-03595] | < 1000 nM | < 1000 nM |  |
| CC(C)(C)OC(=O)N1CCN(c2ccc(C(=O)NCCCc3cn[nH]c3)cc2C#Cc2ccc(F)cc2)CC1 [TT-03596] | < 1000 nM | < 1000 nM |  |
| O=C(NCCCc1cn[nH]c1)c1ccc(N2CCNCC2)c(C#Cc2ccc(F)cc2)c1 [TT-03597] | < 1000 nM | < 1000 nM |  |
| CN1CCN(c2ccc(C(=O)NCCCc3cn[nH]c3)cc2C#Cc2ccc(F)cc2)CC1 [TT-03598] | < 1000 nM | < 1000 nM |  |
| CC(=O)N1CCN(c2ccc(C(=O)NCCCc3cn[nH]c3)cc2C#Cc2ccc(F)cc2)CC1 [TT-03599] | < 1000 nM | < 1000 nM |  |
| Cc1nccn1-c1ccc(C(=O)NCCCc2cn[nH]c2)cc1C#Cc1ccc(F)cc1 [TT-03602] | < 1000 nM | < 1000 nM |  |
| O=C(NCCCc1cn[nH]c1)c1ccc(-n2cccn2)c(C#Cc2cccc(N3CCCC3)n2)c1 [TT-03611] | < 1000 nM | < 1000 nM |  |
| O=C(NCCCc1cn[nH]c1)c1ccc(-n2cccn2)c(C#Cc2ccc3nccn3c2)c1 [TT-03620] | < 1000 nM | < 1000 nM |  |
| CN(C)c1cccc(C#Cc2cc(C(=O)NCCCc3cn[nH]c3)ccc2-n2cccn2)n1 [TT-03623] | < 1000 nM | < 1000 nM |  |
| NC(=O)c1cccc(C#Cc2cc(C(=O)NCCCc3cn[nH]c3)ccc2-n2cccn2)c1 [TT-03625] | < 1000 nM | < 1000 nM |  |
| Cc1nn(-c2ccc(C(=O)NCCCc3cn[nH]c3)cc2C#Cc2ccccc2)c(C)c1C [TT-03626] | < 1000 nM | < 1000 nM |  |
| O=C(NCCCc1cn[nH]c1)c1ccc(-n2ccnc2)c(C#Cc2ccc(F)cc2)c1 [TT-03627] | < 1000 nM | < 1000 nM |  |
| Cn1cc(CCCNC(=O)c2ccc(-n3cccn3)c(C#Cc3ccc(F)cc3)c2)cn1 [TT-03630] | < 1000 nM | < 1000 nM |  |

| SMILES | IC50 (MV4-11) | IC50 (U-937) | further results |
| --- | --- | --- | --- |
| O=C(NCCCc1cn[nH]c1)c1ccc(N2CCOCC2)c(C#Cc2ccncc2)c1 [TT-03631] | < 1000 nM | < 1000 nM |  |
| O=C(NCCCc1cn[nH]c1)c1ccc(N2CCOCC2)c(C#Cc2ccc(F)cn2)c1 [TT-03633] | < 1000 nM | < 1000 nM |  |
| O=C(NCCCc1cn[nH]c1)c1ccc(-n2cnnc2)c(C#Cc2ccc(F)cc2)c1 [TT-03634] | < 1000 nM | < 1000 nM |  |
| O=C(NCCCc1cn[nH]c1)c1ccc(N2CCOCC2)c(C#Cc2ccc(Cl)nc2)c1 [TT-03655] | < 1000 nM | < 1000 nM |  |
| O=C(NCCCc1cn[nH]c1)c1ccc(N2CCOC(CN3CCCCC3)C2)c(C#Cc2ccc(F)cc2)c1 (stereo not shown) [TT-03669] | < 1000 nM | < 1000 nM |  |
| C[C@@H]1CN(c2ccc(C(=O)NCCCc3cn[nH]c3)cc2C#Cc2ccc(F)cc2)C[C@H](C)O1 [TT-03670] | < 1000 nM | < 1000 nM |  |
| O=C1CN(c2ccc(C(=O)NCCCc3cn[nH]c3)cc2C#Cc2ccc(F)cc2)CCN1 [TT-03671] | < 1000 nM | < 1000 nM |  |
| CC1(C)CCCN(c2ccc(C(=O)NCCCc3cn[nH]c3)cc2C#Cc2ccc(F)cc2)C1 [TT-03676] | < 1000 nM | < 1000 nM |  |
| O=C(NC/C=C/c1cn[nH]c1)c1ccc(N2CCCC2)c(C#Cc2ccc(F)cc2)c1 [TT-03717] | < 1000 nM | < 1000 nM |  |
| C[C@@H]1CN(c2ccc(C(=O)NC/C=C/c3cn[nH]c3)cc2C#Cc2ccc(F)cc2)C[C@H](C)O1 [TT-03718] | < 1000 nM | < 1000 nM |  |
| COc1ccc(C#Cc2cc(C(=O)NCCCc3cn[nH]c3)ccc2N2CCOCC2)cn1 [TT-03720] | < 1000 nM | < 1000 nM |  |
| NCCOCCOCCOCCN1CCN(c2ccc(C(=O)NCCCn3ccnc3)cc2C#Cc2ccc(F)cc2)CC1 [TT-03725] | < 1000 nM | < 1000 nM |  |
| C[C@@H]1CN(c2ccc(C(=O)NCCCn3ccnc3)cc2C#Cc2ccc(F)cc2)C[C@H](C)O1 [TT-03727] | < 1000 nM | < 1000 nM |  |
| C[C@@H]1CN(c2ccc(C(=O)N3CC[C@H](O)[C@@H](n4ccnc4)CC3)cc2C#Cc2ccc(F)cc2)C[C@H](C)O1 [TT-03732] | < 1000 nM | 1000 to 5000 nM |  |
| C[C@@H]1CN(c2ccc(C(=O)N[C@@H]3CC[C@@H](n4ccnc4)[C@@H]3O)cc2C#Cc2ccc(F)cc2)C[C@H](C)O1 [TT-03733] | < 1000 nM | 1000 to 5000 nM |  |
| Cc1nccn1CCCNC(=O)c1ccc(N2CCN(CCOCCOCCOCCN)CC2)c(C#Cc2ccc(F)cc2)c1 [TT-03749] | 1000 to 5000 nM | 10000 to 20000 nM |  |
| C[C@@H]1CN(c2ncc(C(=O)NCCCc3cn[nH]c3)cc2C#Cc2ccc(F)cc2)C[C@H](C)O1 [TT-03750] | < 1000 nM | < 1000 nM |  |
| C[C@@H]1CN(c2ncc(C(=O)NC/C=C/c3cn[nH]c3)cc2C#Cc2ccc(F)cc2)C[C@H](C)O1 [TT-03751] | < 1000 nM | < 1000 nM |  |
| C[C@@H]1CN(c2ncc(C(=O)NC/C=C/c3cn[nH]c3)cc2C#Cc2ccc(Cl)cc2)C[C@H](C)O1 [TT-03752] | < 1000 nM | < 1000 nM |  |
| C[C@@H]1CN(c2ncc(C(=O)NCCCc3cn[nH]c3)cc2C#Cc2ccc(Cl)cc2)C[C@H](C)O1 [TT-03753] | < 1000 nM | < 1000 nM |  |
| C[C@@H]1CN(c2ccc(C(=O)NCCCc3cn[nH]c3)cc2C#Cc2ccc(Cl)cc2)C[C@H](C)O1 [TT-03754] | < 1000 nM | < 1000 nM |  |
| O=C1CC2CCC(CN1)N2c1ncc(C(=O)NCCCc2cn[nH]c2)cc1C#Cc1ccc(F)cc1 (stereo not shown) [TT-03765] | < 1000 nM | < 1000 nM |  |
| O=C(NCCCc1cn[nH]c1)c1ccc(-c2cc[n+]([O-])cc2)c(C#Cc2ccc(F)cc2)c1 [TT-03773] | < 1000 nM | < 1000 nM |  |
| O=C(NCC(O)Cc1cn[nH]c1)c1cnc(N2CCOCC2)c(C#Cc2ccc(F)cc2)c1 (stereo not shown) [TT-03774] | < 1000 nM | 1000 to 5000 nM |  |
| O=C(NCCCc1cn[nH]c1)c1cnc(N2CC[S+]([O-])CC2)c(C#Cc2ccc(F)cc2)c1 [TT-03782] | < 1000 nM | < 1000 nM |  |
| O=C(NCCCc1cn[nH]c1)c1cnc(N2CCS(=O)(=O)CC2)c(C#Cc2ccc(F)cc2)c1 [TT-03783] | < 1000 nM | < 1000 nM |  |
